Measured values reported in patent US9127079B2, “Inhibitors of phosphatase and tensin homolog (PTEN) conjugates” (THE UNIVERSITY OF BRITISH COLUMBIA, priority 2009, dated 2015).

Columns and labels:
[1] = Cortical glucose metabolism by FDG-PET after cerebral ischemia; format: in vivo, rat; conditions: one week after treatment
Method: (§1) Adult male Sprague-Dawley rats (weight 200 g) were used in this study. All surgical procedures were performed using sterile/aseptic techniques in accordance with Institutional guidelines. Rats were anesthetized with chloral hydrate (0.4 g/kg IP) and subjected to cerebral ischemia. Ligation of the right middle cerebral artery (MCA) and bilateral common carotids arteries (CCAs) was performed by methods described previously (Shyu et al. 2005). The CCAs were clamped with non-traumatic arterial clips. The right MCA was ligated with a 10-0 nylone suture. After 90 min of ischemia, the suture on the MCA and the arterial clips on the CCAs were removed to allow reperfusion. Core body temperature was monitored with a thermistor probe (Hewlett-Packard™ Model 21090A probe, Hewlett-Packard Company™, Andover, Mass.), and maintained at 37° C. with a heating pad during anesthesia. After recovery from anesthesia, rat body temperature was maintained at 37° C. with a heat lamp. Experimental rats were subdivided into five groups receiving different types of interference peptides, all fused to a TAT protein transduction domain (PTEN-K13 (SEQ ID NO: 2) 2 hrs or 6 hrs, PTEN-K13R (SEQ ID NO: 3), PTEN-K289 (SEQ ID NO: 4), and vehicle control) via femoral vein with dosage of 8.4 mg/kg at 2 or 6 hours after MCA ligation for three consecutive days. […]

[2] = Body asymmetry (elevated body swing test) after cerebral ischemia; format: in vivo, rat; conditions: vs Peptide-K13R, Peptide-K289, saline
Method: as §1, with “anesthesia.” for “anesthesia. After recovery from anesthesia, rat body temperature was maintained at 37° C. with a heat lamp. Experimental rats were subdivided into five groups receiving different types of interference peptides, all fused to a TAT protein transduction domain (PTEN-K13 (SEQ ID NO: 2) 2 hrs or 6 hrs, PTEN-K13R (SEQ ID NO: 3), PTEN-K289 (SEQ ID NO: 4), and vehicle control) via femoral vein with dosage of 8.4 mg/kg at 2 or 6 hours after MCA ligation for three consecutive days.”
(§2) Behavioral assessments were measured on day 28 after stroke. […] The baseline-test scores were recorded in order to normalize those taken after cerebral ischemia. The elevated body swing test (EBST) was used to assess body asymmetry after MCA ligation and evaluated quantitatively as previously described (Shyu et al. 2004). […] The frequency of initial head swing contra-lateral to the ischemic side was counted in twenty continuous tests and was normalized, as follows: % recovery=[1−(lateral swings in twenty tests−10)/10×100%. […]

[3] = Locomotor activity after cerebral ischemia; format: in vivo, rat; conditions: vs other groups
Method: as §1, with “anesthesia.” for “anesthesia. After recovery from anesthesia, rat body temperature was maintained at 37° C. with a heat lamp. Experimental rats were subdivided into five groups receiving different types of interference peptides, all fused to a TAT protein transduction domain (PTEN-K13 (SEQ ID NO: 2) 2 hrs or 6 hrs, PTEN-K13R (SEQ ID NO: 3), PTEN-K289 (SEQ ID NO: 4), and vehicle control) via femoral vein with dosage of 8.4 mg/kg at 2 or 6 hours after MCA ligation for three consecutive days.”
as §2

[4] = Forelimb grip strength after cerebral ischemia; format: in vivo, rat; conditions: before vs 28 days after ischemia
Method: as §1, with “anesthesia.” for “anesthesia. After recovery from anesthesia, rat body temperature was maintained at 37° C. with a heat lamp. Experimental rats were subdivided into five groups receiving different types of interference peptides, all fused to a TAT protein transduction domain (PTEN-K13 (SEQ ID NO: 2) 2 hrs or 6 hrs, PTEN-K13R (SEQ ID NO: 3), PTEN-K289 (SEQ ID NO: 4), and vehicle control) via femoral vein with dosage of 8.4 mg/kg at 2 or 6 hours after MCA ligation for three consecutive days.”
as §2

[5] = Transgenic G37R SOD1 mouse model of ALS: survival and behavioural outcomes; format: in vivo; conditions: IP 16 mg/kg 3 times a week
Method: Transgenic mice expressing G37R SOD1 (G37R) at almost 8 months of age and having no apparent pathologic symptoms were double blinded with a designated code and divided into 3 groups of 12 mice (6 male and 6 female) maintained on a pure C57BL6 background in the local animal facility under a 12 h light cycle with food and drinking water ad libitum. All mice were genotyped by PCR. The use of animals as described in this study was carried out according to The Guide to the Care and Use of Experimental Animals of the Canadian Council on Animal Care. […].
Body weight and neurological scores such as HLR scores and Rota Rod functions were regularly monitored and recorded. End points and survival dates were determined when mice were not able to stand up within 20 s when moved on the side. Disabled mice were anesthetized and sacrificed according to the guidelines of The University of British Columbia for the care and use of laboratory animals. All collected data were subjected to statistical analysis using Kaplan-Meier plots and Log-rank tests.

In the case of “KEIVSRNKRRYQED-YGRKKRRQRRR (KEIVSRNKRRYQEDYGRKKRRQRRR; PTEN K13 interference peptide conjugated to TAT protein transduction domain) [Peptide-K13]”, the “FDG uptake over the right cortex (microPET)” value ([1]; i.v. 8.4 mg/kg given 2 hours after ischemia onset) is reported as “striking increase”, the “FDG uptake over the right cortex (microPET)” value ([1]; i.v. 8.4 mg/kg given 6 hours after ischemia onset) is reported as “striking increase” and the “recovery in body swing tests” value ([2]; given 2 hours after ischemia) is reported as “much more recovery”. The “recovery in body swing tests” value ([2]; given 6 hours after ischemia) was “much more recovery”, the “locomotor activities (vertical activity, vertical time, number of vertical movements)” value ([3]; given 2 hours after ischemia) was “significantly better” and the “locomotor activities (vertical activity, vertical time, number of vertical movements)” value ([3]; given 6 hours after ischemia) was “significantly better”. The “forelimb grip strength ratio” value ([4]; given 2 hours after ischemia) was “much better strength ratio”, the “forelimb grip strength ratio” value ([4]; given 6 hours after ischemia) was “much better strength ratio” and the behavioural outcomes ([5]; female ALS mice) was “improves behavioural outcomes”. The survival ([5]; female ALS mice) was “prolongs the survival” and the survival ([5]; male ALS mice) was “no statistically significant improvement”.
